The NIST ThermoML archive (doi:10.1016/j.jct.2019.03.009)

Assay: mn = molality of the nth substance listed, in mol/kg
Conditions: 298.15 K, 101.3 kPa, Liquid, Taylor dispersion method

CCC(N)C(=O)O (stereo not drawn) [(.+-.)-α-aminobutyric acid] + O
Conditions	binary diffusion coefficient [m2/s]
m1 = 0.001003	8.42e-10
m1 = 0.005014	8.41e-10
m1 = 0.01003	8.39e-10
m1 = 0.02005	8.38e-10
m1 = 0.05008	8.35e-10
m1 = 0.1	8.32e-10
